Laboratory results published in ChEMBL document CHEMBL5370621, “Design, Synthesis, and Biological Evaluation of Novel Thioureidobenzamide (TBA) Derivatives as HBV Capsid Assembly Modulators” (J Med Chem, 2023).

How the values were obtained:
[1] = Selectivity index, ratio of CC50 for cytotoxicity against human HePAD38 cells to EC50 for antiviral activity against Hepatitis B virus infected in human HePAD38 cells; type: toxicity, cell-based; settings: read-out: Ratio CC50/EC50
Hepatitis B virus = experiment: Antiviral activity against Hepatitis B virus infected in human HePAD38 cells assessed as inhibition of viral DNA replication by qPCR analysis; type: functional, organism-based
[2] = Cytotoxicity against human HePAD38 cells assessed as reduction in cell viability incubated for 72 hrs by CCK8 assay; type: toxicity, cell-based
Core antigen = Core antigen (Hepatitis B virus, UniProt Q03732); experiment: Inhibition of fluorescent-labeled capsid assembly in Hepatitis B virus incubated for 1 hr by fluorescence based analysis
Chain of Core antigen (Q03732 whole entry): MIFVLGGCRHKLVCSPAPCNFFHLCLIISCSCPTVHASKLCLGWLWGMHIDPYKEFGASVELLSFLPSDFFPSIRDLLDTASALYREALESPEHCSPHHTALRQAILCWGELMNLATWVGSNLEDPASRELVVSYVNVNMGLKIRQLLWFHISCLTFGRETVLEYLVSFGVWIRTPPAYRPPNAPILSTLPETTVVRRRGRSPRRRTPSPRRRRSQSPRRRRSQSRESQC

SMILES | selectivity ratio [1] | EC50 (Hepatitis B virus) | CC50 at 72 h [2] | IC50 (Core antigen)
Cc1cc(NC(=O)c2cc(NC(=O)NC3CCC(O)CC3)c(F)cc2Br)ccc1F (centres undefined) | > 13.6 | 7.33 µM | > 100 µM | –
Cc1cc(NC(=O)c2cc(NC(=O)c3ccc(F)cc3)c(F)cc2Br)ccc1F | 2.59 | 0.46 µM | 1.19 µM | –
CCOC(=O)C1=C(CN2CCOCC2)NC(c2nccs2)=N[C@H]1c1ccc(C)cc1Br | > 5920 | 0.017 µM | > 100 µM | 0.86 µM
Cc1cc(NC(=O)c2cc(NC(=O)c3cc(F)c(F)c(F)c3)c(F)cc2Br)ccc1F | 21.8 | 0.83 µM | 18.1 µM | –
Cc1cc(NC(=O)c2cc(NC(=O)c3ccc(Br)cc3)c(F)cc2Br)ccc1F | 12.6 | 0.19 µM | 2.4 µM | –
O=C(Nc1cc(F)c(F)c(F)c1)c1cc(S(=O)(=O)N2CCC(O)CC2)c(F)cc1Br | 1.98 | 1.72 µM | 3.41 µM | –
Cc1cc(CNC(=S)Nc2cc(C(=O)Nc3ccc(F)c(C)c3)c(Br)cc2F)ccc1F | 37.1 | 0.1 µM | 3.71 µM | –
O=C(Nc1cc(F)cc(F)c1)c1cc(S(=O)(=O)NC2CCCC2)c(F)cc1Br | > 123 | 0.81 µM | > 100 µM | –
Cc1cc(NC(=O)c2cc(NC(=O)Nc3cc(F)c(F)c(F)c3)c(F)cc2Br)ccc1F | 2.19 | 1.18 µM | 2.59 µM | –
C/C=C/C(=O)Nc1cc(C(=O)Nc2ccc(F)c(C)c2)c(Br)cc1F | 14.4 | 1.98 µM | 28.5 µM | –
CCCc1ccc(C(=O)Nc2cc(C(=O)Nc3ccc(F)c(C)c3)c(Br)cc2F)cc1 | 55.1 | 0.58 µM | 32 µM | –
Cc1cc(NC(=O)c2cc(NC(=O)N3CCC(O)CC3)c(F)cc2Br)ccc1F | > 23 | 4.34 µM | > 100 µM | –
Cc1cc(NC(=O)c2cc(NC(=O)NCc3ccc(O)cc3)c(F)cc2Br)ccc1F | 16.6 | 0.12 µM | 1.99 µM | –
Cc1cc(NC(=O)c2cc(NC(=O)NC(C)C)c(F)cc2Br)ccc1F | 16.6 | 1.15 µM | 19.1 µM | –
CCNC(=S)Nc1cc(C(=O)Nc2ccc(F)c(C)c2)c(Br)cc1F | 242 | 0.18 µM | 43.6 µM | –
C=CCNC(=S)Nc1cc(C(=O)Nc2ccc(F)c(C)c2)c(Br)cc1F | 358 | 0.14 µM | 50.1 µM | –
C=C1[C@H](CO)[C@@H](O)C[C@@H]1n1cnc2c(=O)[nH]c(N)nc21 [ENTECAVIR ANHYDROUS] | 3780 | 0.021 µM | 79.3 µM | –
Cc1cc(NC(=O)c2cc(NC(=O)NCc3ccc(C(C)(C)C)cc3)c(F)cc2Br)ccc1F | > 42.9 | 2.33 µM | > 100 µM | –
Cc1cc(NC(=O)c2cc(NC(=O)c3ccc(C#N)cc3)c(F)cc2Br)ccc1F | 572 | 0.15 µM | 85.7 µM | –
C=CC(=O)Nc1cc(C(=O)Nc2ccc(F)c(C)c2)c(Br)cc1F | 3.59 | 2.22 µM | 7.98 µM | –
Cc1cc(NC(=O)c2cc(NC(=O)Nc3ccc(C(F)(F)F)cc3)c(F)cc2Br)ccc1F | 0.67 | 5.21 µM | 3.5 µM | –

SMILES | selectivity ratio [1] | EC50 (Hepatitis B virus) | CC50 at 72 h [2] | IC50 (Core antigen)
O=C(Nc1cc(F)c(F)c(F)c1)c1cc(S(=O)(=O)NC2CCCC2)c(F)cc1Br | 313 | 0.11 µM | 34.5 µM | –
N#Cc1cc(NC(=O)c2cc(S(=O)(=O)N[C@H]3CCOC3)c(F)cc2Br)ccc1F | > 15.4 | 6.49 µM | > 100 µM | –
O=C(Nc1ccc(F)c(C(F)(F)F)c1)c1cc(S(=O)(=O)N[C@H]2CCOC2)c(F)cc1Br | > 19.8 | 5.06 µM | > 100 µM | –
Cc1cc(NC(=O)c2cc(NC(=O)NCc3cccnc3)c(F)cc2Br)ccc1F | > 200 | 0.5 µM | > 100 µM | –
Cc1cc(NC(=O)c2cc(NC(=O)C3CCC3)c(F)cc2Br)ccc1F | 23 | 3.46 µM | 79.6 µM | –
O=C(Nc1ccc(F)cc1)c1cc(S(=O)(=O)N[C@H]2CCOC2)c(F)cc1Br | > 41.8 | 2.39 µM | > 100 µM | –
O=C(Nc1cc(F)c(F)c(F)c1)c1ccc(F)c(S(=O)(=O)N2CCC(O)CC2)c1 | 47.6 | 0.35 µM | 16.7 µM | 1.53 µM
O=C(Nc1ccc(F)c(Cl)c1)c1cc(S(=O)(=O)N[C@H]2CCOC2)c(F)cc1Br | 21.9 | 0.94 µM | 20.6 µM | –
Cc1cc(NC(=O)c2cc(NC(=O)C3CCCC3)c(F)cc2Br)ccc1F | > 93.5 | 1.07 µM | > 100 µM | –
Cc1cc(NC(=O)c2cc(NC(=O)C3CC3)c(F)cc2Br)ccc1F | 155 | 0.54 µM | 84 µM | –
Cc1ccc(C(=O)Nc2cc(C(=O)Nc3ccc(F)c(C)c3)c(Br)cc2F)cc1 | 40.1 | 0.52 µM | 20.9 µM | –
O=C(Nc1ccc(F)cc1)c1cc(S(=O)(=O)NC2CCCC2)c(F)cc1Br | 74.4 | 0.78 µM | 58 µM | –
Cc1cc(NC(=O)c2cc(NC(=O)C3CCCCC3)c(F)cc2Br)ccc1F | 15.3 | 1.35 µM | 20.7 µM | –
N#Cc1cc(NC(=O)c2cc(S(=O)(=O)NC3CCCC3)c(F)cc2Br)ccc1F | 13.3 | 1.45 µM | 19.3 µM | –
Cc1cc(CNC(=O)Nc2cc(C(=O)Nc3ccc(F)c(C)c3)c(Br)cc2F)ccc1F | 10.2 | 0.32 µM | 3.28 µM | –
Cc1cc(NC(=O)c2cc(NC(=O)C(=O)NC(C)C)c(F)cc2Br)ccc1F | > 496 | 0.2 µM | > 100 µM | –
COCCC(=O)Nc1cc(C(=O)Nc2ccc(F)c(C)c2)c(Br)cc1F | 27.4 | 3.55 µM | 97.4 µM | –
Cc1cc(NC(=O)c2cc(NC(=S)NC(C)C(F)(F)F)c(F)cc2Br)ccc1F (centres undefined) | 710 | 0.024 µM | 17.1 µM | –
O=C(Nc1cc(F)c(F)c(F)c1)c1cc(S(=O)(=O)N[C@H]2CCOC2)c(F)cc1Br | 18.8 | 4.7 µM | 88.2 µM | –
Nc1ccn([C@@H]2CS[C@H](CO)O2)c(=O)n1 [LAMIVUDINE] | > 25.1 | 3.98 µM | > 100 µM | –
CCC(CC)NC(=O)Nc1cc(C(=O)Nc2ccc(F)c(C)c2)c(Br)cc1F | 18.2 | 0.99 µM | 18.1 µM | –

SMILES | selectivity ratio [1] | EC50 (Hepatitis B virus) | CC50 at 72 h [2] | IC50 (Core antigen)
Cc1cc(NC(=O)c2cc(NC(=O)C(=O)NC3CC3)c(F)cc2Br)ccc1F | 25.3 | 0.67 µM | 17 µM | –
COc1ccc(CNC(=O)Nc2cc(C(=O)Nc3ccc(F)c(C)c3)c(Br)cc2F)cc1 | 56.1 | 0.087 µM | 4.88 µM | –
Cc1cc(NC(=O)c2cc(NC(=S)NCc3ccc(C(F)(F)F)cc3)c(F)cc2Br)ccc1F | 16.1 | 0.2 µM | 3.22 µM | –
Cc1cc(NC(=O)c2cc(NC(=O)NCc3cc(F)cc(F)c3)c(F)cc2Br)ccc1F | 20.7 | 0.18 µM | 3.72 µM | –
Cc1cc(NC(=O)c2cc(NC(=O)c3ccc(C(F)(F)F)cc3)c(F)cc2Br)ccc1F | 4.83 | 1.01 µM | 4.88 µM | –
Cc1cc(NC(=O)c2cc(NC(=O)NC3CCCC3)c(F)cc2Br)ccc1F | 0.96 | 5.77 µM | 5.52 µM | –
CCN(CC)S(=O)(=O)c1cc(C(=O)Nc2cc(F)c(F)c(F)c2)c(Br)cc1F | 9.72 | 0.46 µM | 4.47 µM | –
O=C(Nc1ccc(F)c(F)c1)c1cc(S(=O)(=O)N[C@H]2CCOC2)c(F)cc1Br | 67.8 | 0.94 µM | 63.7 µM | –
Cc1cc(NC(=O)c2cc(NC(=S)NCc3ccc(B(O)O)cc3)c(F)cc2C)ccc1F | 595 | 0.01 µM | 5.95 µM | –
Cc1cc(NC(=O)c2cc(NC(=O)NCc3ccc(F)cc3)c(F)cc2Br)ccc1F | 54.4 | 0.34 µM | 18.5 µM | –
Cc1cc(NC(=O)c2cc(NC(=O)NCc3ccc(C(F)(F)F)cc3)c(F)cc2Br)ccc1F | 35.6 | 0.33 µM | 11.8 µM | –
Cc1cc(NC(=O)c2cc(NC(=S)NCc3cc(F)cc(F)c3)c(F)cc2Br)ccc1F | 16.4 | 0.22 µM | 3.61 µM | –
Cc1cc(NC(=O)c2cc(S(=O)(=O)NC3CCCC3)c(F)cc2Br)ccc1F | > 227 | 0.44 µM | > 100 µM | –
Cc1cc(NC(=O)c2cc(NC(=O)c3cccs3)c(F)cc2Br)ccc1F | 129 | 0.66 µM | 85.1 µM | –
Cc1cc(NC(=O)c2cc(NC(=S)NCc3ccc(B(O)O)cc3)c(F)cc2Br)ccc1F | 106 | 0.029 µM | 3.08 µM | –
Cc1cc(NC(=O)c2cc(NC(=O)NCc3cc(F)c(F)c(F)c3)c(F)cc2Br)ccc1F | 5.13 | 0.72 µM | 3.69 µM | –
Cc1cc(NC(=O)c2cc(NC(=O)C(=O)NC3CCCC3)c(F)cc2Br)ccc1F | < 0.87 | > 20 µM | 17.4 µM | –
Cc1cc(NC(=O)c2cc(S(=O)(=O)N[C@H]3CCOC3)c(F)cc2Br)ccc1F | > 164 | 0.61 µM | > 100 µM | –
O=C(Nc1ccc(F)c(C(F)(F)F)c1)c1cc(S(=O)(=O)NC2CCCC2)c(F)cc1Br | – | > 20 µM | > 100 µM | –
